We go through 4 compounds from US7262204B2, “Modulation of CCR4 function” (Amgen Inc., priority 2000, dated 2007).

As a reminder, the IC50 is the concentration needed to halve the response being measured.

This assay has as its target T1, CCR4 (Homo sapiens, UniProt P51679).
T1 construct: host or cells: CEM cells
T1 sequence (P51679 1-360): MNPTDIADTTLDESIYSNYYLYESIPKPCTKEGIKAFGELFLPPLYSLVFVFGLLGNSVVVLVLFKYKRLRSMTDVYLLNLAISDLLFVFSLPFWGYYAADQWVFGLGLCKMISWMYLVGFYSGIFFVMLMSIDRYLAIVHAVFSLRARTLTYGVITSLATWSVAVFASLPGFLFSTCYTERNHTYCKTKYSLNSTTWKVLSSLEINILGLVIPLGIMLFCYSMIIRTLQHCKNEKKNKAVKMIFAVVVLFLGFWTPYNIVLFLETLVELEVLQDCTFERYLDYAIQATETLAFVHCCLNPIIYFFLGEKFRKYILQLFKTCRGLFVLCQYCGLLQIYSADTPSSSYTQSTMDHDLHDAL
Put plainly: CCR4 binding assay (inhibition of 125I-TARC binding to cells expressing CCR4). Conditions: CCR4 antagonist activity. The source says: This example illustrates a CCR4 binding assay that can be used for evaluating the compounds of the present invention.
Detection of Radiolabelled TARC and/or MDC Binding to CCR4
^125I-labelled TARC and MDC are available from commercial sources (e.g., Amersham-Pharmacia or Perkin Elmer Life Sciences). All buffers and materials are available from commercial sources (e.g., Gibco BRL, Sigma). To measure binding of ^125I-TARC or ^125I-MDC to cells expressing CCR4 (e.g., CEM cells, available from the ATCC), the ^125I-TARC or ^125I-MDC is diluted to a concentration of approximately 200 pM in a buffered saline solution (e.g., RPMI supplemented with 0.5% bovine serum albumin), and added to an equal volume of a suspension of cells (e.g., CEM cells at 5×10^6 cells/mL). The resulting mixture is incubated for a period of time (e.g., 2 hours). The unbound ^125I-TARC or ^125I-MDC is separated from the cells by filtration, e.g., by passage through GF/B filter plate (Packard Biosciences) pre-treated with 0.3% polyethyleneimine (Sigma), using a Packard Filtermate 96 (Packard Biosciences). The amount of ^125I-TARC or ^125I-MDC retained with the cells on the filterplate is measured by adding a small amount of scintillation fluid (e.g., 50 μL of Microscint-20, obtained from Packard Biosciences), and reading scintillation on appropriate detection equipment, e.g., a Packard TopCount 383 (Packard Biosciences).
Non-specific binding of ^125I-TARC or ^125I-MDC can be estimated by measuring the amount of ^125I-TARC or ^125I-MDC retained with the cells on the filterplate when the assay is performed in the presence of a large excess of unlabelled TARC or MDC.
Inhibition of ^125I-TARC or ^125I-MDC binding to CCR4 is defined as a decrease in the retention of ^125I-TARC or ^125I-MDC to the cells on the filterplate.
The assay described above varies only moderately from standardly used procedures, e.g., Imai et al. (1997) J. Biol. Chem. 272:15036-15042, Imai et al. (1998) J. Biol. Chem. 273:1764-1768.
For `Clc1ccc2nc(Nc3cccc4ccccc34)sc2c1` [Compound 19], the IC50 was less than 1000 nM. For the compound `CC(C)CN(Cc1csc(Nc2cccc3ccccc23)n1)CC(C)C` [Compound 15], the IC50 is greater than 1000 nM. As for `CC(C)CN(CC(C)C)C(C)c1csc(Nc2cccc3ccccc23)n1` (stereo not shown) [Compound 18], the IC50 is greater than 1000 nM.

Compound `c1ccc(CN2CCc3sc(Nc4cccc5ccccc45)nc3C2)cc1` [Compound 20] returned an IC50 greater than 1000 nM.
